This is an account of results in US7189851B2, “Condensed heterocyclic compounds as calcitonin agonists” (SmithKline Beecham Corporation, priority 2002, dated 2007).

The target in this assay is T1, human calcitonin-2 receptor (hCT2R) (Homo sapiens, UniProt P30988).
T1 construct: expressed in transfected cells; host or cells: Chinese hamster ovary (CHO) cells co-transfected with a 6CRE-luciferase reporter; receptor cDNA cloned from the MCF7 cell line
T1 sequence (P30988 25-474): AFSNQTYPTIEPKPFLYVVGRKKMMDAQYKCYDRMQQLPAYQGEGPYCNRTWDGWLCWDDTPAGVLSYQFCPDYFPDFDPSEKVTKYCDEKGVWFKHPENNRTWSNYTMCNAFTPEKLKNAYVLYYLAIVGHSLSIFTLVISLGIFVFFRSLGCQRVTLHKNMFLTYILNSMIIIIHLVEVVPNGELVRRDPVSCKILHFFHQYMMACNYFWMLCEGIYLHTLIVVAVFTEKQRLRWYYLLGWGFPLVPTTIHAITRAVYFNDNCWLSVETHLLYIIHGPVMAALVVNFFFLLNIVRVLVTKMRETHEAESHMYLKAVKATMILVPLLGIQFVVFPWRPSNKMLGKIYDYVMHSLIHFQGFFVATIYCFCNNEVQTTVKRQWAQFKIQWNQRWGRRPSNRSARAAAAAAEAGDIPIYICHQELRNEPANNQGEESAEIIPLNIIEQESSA
Briefly: HCT2R CRE-luc reporter assay. The assay is classed as cell-based. The following applies: agonist activity; CHO-6CRE-luciferase cells co-transfected with hCT2R. As to the method: The compounds of the present invention elicit important and measurable pharmacological responses. As is to be expected, the efficacy of any compound will vary depending upon the particular assay and the particular compound tested.
All recombinant cell line human calcitonin receptor assays were carried out with the human receptor corresponding to GeneBank Accession Number X69920, [See: Molecular Pharmacology 46 (2):246–255, 1994, Cloning and characterization of an abundant subtype of the human calcitonin receptor] cloned from the MCF7 cell line (American Type Tissue Collection, Manassas, Va., USA, Catalog # HTB-22). Human calcitonin receptor (hCT2R) was cloned as a HindIII fragment into plasmid BS SKII. Chinese hamster ovary cells were co-transfected with a 6CRE-luciferase reporter system and hCTR2. HEK cells were transfected with hCTR2.
CHO-6CRE-luciferase cells with or without co-expressed hCTR2 were grown in suspension in commercially available cell culture medium supplemented with 2 mM L-glutamine and 5% fetal bovine serum (FBS). Sixteen hours before each assay, cells were collected and resuspended at 1,000,000 cells/ml in media without FBS. Cells were cultured in spinner flasks at 37° C. in an atmosphere of 5% CO2. At the time of the assay, cells were pelleted by centrifugation and resuspended in media without FBS at a concentration of 250,000 cells/ml. The cell suspension was pipetted into black 96-well microtiter plates (25,000 cells/well) containing test compounds. After a four-hour incubation at 37° C., media was aspirated, followed by addition of 50 microliters of LucLite and PBS (1:1) containing 1 mM CaCl2 and 1 mM MgCl2. The plates were sealed and incubated for 20 minutes in the dark. Luminescent responses were measured using a Packard TopCount.
Structure activity studies were performed on CHO-6CRE-luciferase cells with or without co-transfected hCT2R. Forty-eight hours before each assay, cells were removed with trypsin and plated in 96-well microtiter plates at a concentration of 25–100,000 cells/well. Sixteen hours before each assay, FBS-containing media was removed and replaced with media without FBS. Compounds were added and incubated for four hours at 37° C. After incubation, media was aspirated and 50 microliters of LucLite in PBS (1:1) containing 1 mM CaCl2 and 1 mM MgCl2 were added to each well. Plates were sealed and incubated for 20 minutes in the dark before quantification of luminescence on a Packard TopCount.
Concentration-response curves were calculated and potencies were reported as the concentration of compounds producing half-maximal responses (EC50) or the negative log of the concentration of compounds producing half-maximal responses (pEC50).
For orientation: A reporter such as luciferase makes a cellular process visible.
In the case of `O=C(NCc1ccco1)c1ccc(-c2c(NC(=O)C3CC3)c(CCc3ccc(C(F)(F)F)cc3)nc3c2C(=O)N2CCC[C@@H]32)cc1` [Example 26, 4-((9aS)-3-[(Cyclopropylcarbonyl)amino]-5-oxo-2-{2-[4-(trifluoromethyl)phenyl]ethyl}-7,8,9,9a-tetrahydro-5H-pyrido[2,3-α]pyrrolizin-4-yl)-N-(2-furylmethyl)benzamide], the EC50 was in the range of 100 to 1000 nM.

As to `O=C(NCc1ccco1)c1ccc(-c2c(NC(=O)C(F)(F)F)c(CCc3ccc(C(F)(F)F)cc3)nc3c2C(=O)N2CCC[C@@H]32)cc1` [Example 27, 4-((9aS)-3-[(Trifluoromethylcarbonyl)amino]-5-oxo-2-{2-[4-(trifluoromethyl)phenyl]ethyl}-7,8,9,9a-tetrahydro-5H-pyrido[2,3-α]pyrrolizin-4-yl)-N-(2-furylmethyl)benzamide], the half-maximal effective concentration (EC50) was 100 to 1000 nM.

As for `N#Cc1c(CCc2ccc(C(F)(F)F)cc2)nc2c(c1-c1ccc(C(=O)NCc3ccco3)cc1)C(=O)N1CCC[C@@H]21` [Example 28, 4-((9aS)-3-Cyano-5-oxo-2-{2-[4-(trifluoromethyl)phenyl]ethyl}-7,8,9,9a-tetrahydro-5H-pyrido[2,3-α]pyrrolizin-4-yl)-N-(2-furylmethyl)benzamide], the half-maximal effective concentration (EC50) was 100 to 1000 nM.

Regarding `CC(=O)c1c(CCc2ccc(F)cc2)nc2c(c1-c1ccc(C(=O)NCc3ccco3)cc1)C(=O)N1CCC[C@@H]21` [Example 29, 4-{(9aS)-3-acetyl-2-[2-(4-fluorophenyl)ethyl]-5-oxo-7,8,9,9a-tetrahydro-5H-pyrido[2,3-α]pyrrolizin-4-yl}-N-(2-furylmethyl)benzamide], the 50% effective concentration (EC50) is 10 to 100 nM.

Take `Cc1nc2c(c(-c3ccc(C(=O)NCc4ccco4)cc3)c1C(=O)CCc1ccc(F)cc1)C(=O)N1CCC[C@@H]21` [Example 30, 4-{(9aS)-3-[3-(4-fluorophenyl)propanoyl]-2-methyl-5-oxo-7,8,9,9a-tetrahydro-5H-pyrido[2,3-α]pyrrolizin-4-yl}-N-(2-furylmethyl)benzamide]: the EC50 was 100 to 1000 nM.

In the case of `O=C(NCc1ccco1)c1ccc(-c2c(C(=O)c3ccco3)c(CCc3ccc(F)cc3)nc3c2C(=O)N2CCC[C@@H]32)cc1` [Example 31, 4-[(9aS)-2-[2-(4-fluorophenyl)ethyl]-3-(2-furoyl)-5-oxo-7,8,9,9a-tetrahydro-5H-pyrido[2,3-α]pyrrolizin-4-yl]-N-(2-furylmethyl)benzamide], the 50% effective concentration (EC50) is at most 10 nM.

For `O=C(N[C@@H]1CCc2ccccc21)c1ccc(-c2c3c(nc4c2C(=O)N2CCC[C@@H]42)CC(c2ccc(F)cc2)CC3=O)cc1` (stereo partly drawn) [Example 32, 4-[(3aS)-6-(4-Fluorophenyl)-8,10-dioxo-2,3,3a,5,6,7,8,10-octahydro-1H-pyrrolizino[1,2-b]quinolin-9-yl]-N-[(1R)-2,3-dihydro-1H-inden-1-yl]benzamide], the EC50 is at least 1000 nM.

In the case of `CCOC(=O)c1c(CCc2ccc(C(F)(F)F)cc2)nc2c(c1-c1ccc(C(=O)NCc3ccco3)cc1)C(=O)N1CSC[C@@H]21` [Example 34, Ethyl (9aR)-4-(4-{[(2-furylmethyl)amino]carbonyl}phenyl)-5-oxo-2-{2-[4-(trifluoromethyl)phenyl]ethyl}-9,9a-dihydro-5H-[1,3]thiazolo[3′,4′:1,2]pyrrolo[3,4-b]pyridine-3-carboxylate], the EC50 is at most 10 nM.

Turning to `CCOC(=O)c1c(CCc2ccc(C(F)(F)F)cc2)nc2c(c1-c1ccc(C(=O)NCc3ccco3)cc1)C(=O)N1CS(=O)(=O)C[C@@H]21` [Example 35, Ethyl (9aR)-4-(4-{[(2-furylmethyl)amino]carbonyl}phenyl)-5-oxo-2-{2-[4-(trifluoromethyl)phenyl]ethyl}-9,9a-dihydro-5H-[1,3]thiazolo[3′,4′:1,2]pyrrolo[3,4-b]pyridine-3-carboxylate 8,8-dioxide], the EC50 was 10 to 100 nM.

With `CCOC(=O)c1c(CCc2ccc(C(F)(F)F)cc2)nc2c(c1-c1ccc(CC(=O)NCc3ccco3)cc1)C(=O)N1CCC[C@@H]21` [Example 37, Ethyl (9aS)-4-(4-{2-[(2-furylmethyl)amino]-2-oxoethyl}phenyl)-5-oxo-2-{2-[4-(trifluoromethyl)phenyl]ethyl}-7,8,9,9a-tetrahydro-5H-pyrido[2,3-α]pyrrolizine-3-carboxylate], the concentration giving a half-maximal response (EC50) was in the range of 100 to 1000 nM.

Turning to `CCOC(=O)c1c(Cc2ccc(F)cc2)nc2c(c1-c1ccc(C(=O)NCc3ccco3)nn1)C(=O)N1CCCC21` (stereo not drawn) [Example 39, Ethyl 2-(4-fluorobenzyl)-4-(6-{[(2-furylmethyl)amino]carbonyl}-3-pyridazinyl)-5-oxo-7,8,9,9a-tetrahydro-5H-pyrido[2,3-α]pyrrolizine-3-carboxylate], the half-maximal effective concentration (EC50) was in the range of 10 to 100 nM.

For the molecule `CCOC(=O)c1c(CCc2ccc(F)cc2)nc2c(c1-c1ccc(C)cc1)C(=O)N1CCC[C@@H]21` [Example 40, Ethyl (9aS)-2-[2-(4-fluorophenyl)ethyl]-4-(4-methylphenyl)-5-oxo-7,8,9,9a-tetrahydro-5H-pyrido[2,3-α]pyrrolizine-3-carboxylate], the EC50 was in the range of 100 to 1000 nM.

Turning to `CCOC(=O)c1c(CCc2ccc(C(F)(F)F)cc2)nc2c(c1-c1ccc(C(=O)NCCCn3ccnc3)cc1)C(=O)N1CCC[C@@H]21` [Example 41, Ethyl (9aS)-4-[4-({[3-(1H-imidazol-1-yl)propyl]amino}carbonyl)phenyl]-5-oxo-2-{2-[4-(trifluoromethyl)phenyl]ethyl}-7,8,9,9a-tetrahydro-5H-pyrido[2,3-α]pyrrolizine-3-carboxylate], the EC50 lay in the range of 100 to 1000 nM.

`CCOC(=O)c1c(CCc2ccc(C(F)(F)F)cc2)nc2c(c1-c1ccc(C(=O)NCCc3cnc[nH]3)cc1)C(=O)N1CCC[C@@H]21` [Example 42, Ethyl (9aS)-4-[4-({[2-(1H-imidazol-5-yl)ethyl]amino}carbonyl)phenyl]-5-oxo-2-{2-[4-(trifluoromethyl)phenyl]ethyl}-7,8,9,9a-tetrahydro-5H-pyrido[2,3-α]pyrrolizine-3-carboxylate]: the concentration giving a half-maximal response (EC50) lay in the range of 100 to 1000 nM.

As for `CCOC(=O)c1c(CCCC(C)C)nc2c(c1-c1ccc(C(=O)N[C@@H]3CCc4ccccc43)cc1)C(=O)N1CCC[C@@H]21` [Example 43, Ethyl (9aS)-4-(4-{[(1R)-2,3-dihydro-1H-inden-1-ylamino]carbonyl}phenyl)-2-(4-methylpentyl)-5-oxo-7,8,9,9a-tetrahydro-5H-pyrido[2,3-α]pyrrolizine-3-carboxylate], the EC50 is at most 10 nM.

`CCOC(=O)c1c(CCC(F)(F)F)nc2c(c1-c1ccc(C(=O)N[C@@H]3CCc4ccccc43)cc1)C(=O)N1CCC[C@@H]21` [Example 44, Ethyl (9aS)-4-(4-{[(1R)-2,3-dihydro-1H-inden-1-ylamino]carbonyl}phenyl)-5-oxo-2-(3,3,3-trifluoropropyl)-7,8,9,9a-tetrahydro-5H-pyrido[2,3-α]pyrrolizine-3-carboxylate]: the EC50 was 10 to 100 nM.

As for `CCOC(=O)c1c(Cc2ccc(F)cc2F)nc2c(c1-c1ccc(C(=O)NN3CCc4ccccc43)cc1)C(=O)N1CCC[C@@H]21` [Example 45, Ethyl (9aS)-2-(2,4-difluorobenzyl)-4-{4-[(2,3-dihydro-1H-indol-1-ylamino)carbonyl]phenyl}-5-oxo-7,8,9,9a-tetrahydro-5H-pyrido[2,3-α]pyrrolizine-3-carboxylate], the concentration giving a half-maximal response (EC50) was 10 to 100 nM.

Take `CCOC(=O)c1c(Cc2ccc(F)cc2)nc2c(c1-c1ccc(CNC(=O)c3ccccc3)s1)C(=O)N1CCC[C@@H]21` [Example 46, Ethyl (9aS)-4-{5-[(benzoylamino)methyl]-2-thienyl}-2-(4-fluorobenzyl)-5-oxo-7,8,9,9a-tetrahydro-5H-pyrido[2,3-α]pyrrolizine-3-carboxylate]: the concentration for a half-maximal effect (EC50) lay within 100 to 1000 nM.

The EC50 is the midpoint of the concentration-response curve.
